Measured values as given in paper PMC9721025, “Pharmacokinetic study of the main components of Tanreqing capsules and Tanreqing injections in beagles by liquid chromatography–tandem mass spectrometry” (Chinese Medicine, 2022).
Like-named read-outs stand apart in the source and are kept apart here.

How the values were obtained:
[1] = Stability of analytes in dog plasma (QC samples); format: in vitro ADME
Procedure, shortened: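 QC samples in dog plasma at three concentration levels, three replicates each, tested for short-term (6 h room temperature), long-term (−80 °C, 30 days) and freeze–thaw (three cycles, −80 °C to room temperature) stability. Working solutions prepared in methanol/water 10:90.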

[2] = Pharmacokinetics in beagles, single-dose regimen of TRQI (i.v.) or TRQC (oral), plasma LC-MS/MS; format: in vivo, beagle; settings: for AUC(0-t) / Cmax / Tmax / half-life: beagle, dog, plasma; for AUC(0-t): read-out: AUC0–24 h; for Cmax / Tmax / half-life: mean of six beagles
Procedure, shortened: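 Crossover study in six beagles (9.0–12.0 kg) with a 7-day washout: TRQI 0.5 mL/kg i.v. or TRQC 0.09 g/kg orally, single dose. Plasma was sampled at 14 points to 24 h, protein-precipitated, analysed by LC–MS/MS, with parameters from non-compartmental analysis.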

[3] = Tanreqing injection, cited from earlier work
[4] = Pharmacokinetics in beagles, multiple-dose regimen (once per day for 7 days) of TRQI or TRQC, plasma LC-MS/MS; format: in vivo; settings: beagle, dog
Procedure, shortened: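 Six beagles dosed once daily for 7 days with TRQI (0.5 mL/kg injection) or TRQC (0.09 g/kg), crossover after washout. Plasma sampled 0–24 h after seventh dose, methanol/acetonitrile-precipitated, measured by LC–MS/MS. Steady-state parameters by non-compartmental analysis.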

[5] = n = 3, high QC: nominal 200 ng/mL baicalin, 1000 ursodeoxycholic acid, 100 chenodeoxycholic acid and chlorogenic acid
[6] = n = 3, low QC: nominal 4 ng/mL baicalin, 20 ursodeoxycholic acid, 2 chenodeoxycholic acid and chlorogenic acid
[7] = n = 3, middle QC: nominal 20 ng/mL baicalin, 100 ursodeoxycholic acid, 10 chenodeoxycholic acid and chlorogenic acid
[8] = both sexes, iv, single i.v. dose of TRQI 0.5 mL/kg
[9] = both sexes, single oral dose of TRQC 0.09 g/kg
[10] = both sexes, iv, TRQI 0.5 mL/kg once per day for 7 days, mean
[11] = both sexes, po, TRQC 0.09 g/kg once per day for 7 days, mean

**Q.** For C[C@H](CCC(=O)O)[C@H]1CC[C@H]2[C@@H]3[C@H](O)C[C@@H]4C[C@H](O)CC[C@]4(C)[C@H]3CC[C@]12C [Chenodeoxycholic acid, chenodeoxycholic acid], which “Freeze-thaw stability (3 cycles) Mean ± S.D. concentration” value (shortened to “Freeze-thaw stability”) [1, 5] is on record?
**A.** 95.70 ± 4.66 ng/mL

**Q.** And the “Long-term stability (30 days at – 80 °C) Mean ± S.D. concentration” value (“Long-term stability” for short) [1, 5]?
**A.** 101.23 ± 5.13 ng/mL

**Q.** And the “Short-term stability (6 h at room temperature) Mean ± S.D concentration” value (from here on “Short-term stability”) [1, 5]?
**A.** 101.57 ± 0.54 ng/mL

**Q.** And the “Freeze-thaw stability” value [1, 6]?
**A.** 1.97 ± 0.17 ng/mL

**Q.** What about the “Long-term stability” value [1, 6] of the same compound?
**A.** 1.92 ± 0.22 ng/mL

**Q.** What about the “Short-term stability” value [1, 6] of the same compound?
**A.** 1.77 ± 0.06 ng/mL

**Q.** What about the “Freeze-thaw stability” value [1, 7] of the same compound?
**A.** 9.37 ± 0.95 ng/mL

**Q.** What about the “Long-term stability” value [1, 7] of the same compound?
**A.** 10.10 ± 0.36 ng/mL

**Q.** What about the “Short-term stability” value [1, 7] of the same compound?
**A.** 9.79 ± 0.78 ng/mL

**Q.** And the “time at which oral absorption reached a peak” value ([2]; TRQC, oral, dogs)?
**A.** ~5 h

**Q.** What about the AUC(0-t) ([2]; both sexes, iv, 0.5 mL/kg, single TRQI 0.5 mL/kg, Mean) of the same compound?
**A.** 359 ng·h/mL

**Q.** What about the Cmax [2, 8] of the same compound?
**A.** 120 ng/mL

**Q.** What about the Tmax [2, 8] of the same compound?
**A.** 1.07 h

**Q.** What about the half-life [2, 8] of the same compound?
**A.** 340 min

**Q.** And the AUC(0-t) ([2]; both sexes, po, 0.09 g/kg, single TRQCs 0.09 g/kg, Mean)?
**A.** 553 ng·h/mL

**Q.** And the Cmax [2, 9]?
**A.** 99.8 ng/mL

**Q.** What about the Tmax [2, 9] of the same compound?
**A.** 7.53 h

**Q.** What about the half-life [2, 9] of the same compound?
**A.** 356 min

**Q.** What about the AUC(0-t) ([2]; female, iv, 0.5 mL/kg, single TRQI 0.5 mL/kg, beagle No 4) of the same compound?
**A.** 89 ng·h/mL

**Q.** What about the AUC(0-t) ([2]; female, iv, 0.5 mL/kg, single TRQI 0.5 mL/kg, beagle No 5) of the same compound?
**A.** 137 ng·h/mL

**Q.** What about the AUC(0-t) ([2]; female, iv, 0.5 mL/kg, single TRQI 0.5 mL/kg, beagle No 6) of the same compound?
**A.** 95 ng·h/mL

**Q.** And the AUC(0-t) ([2]; female, po, 0.09 g/kg, single TRQCs 0.09 g/kg, beagle No 4)?
**A.** 1330 ng·h/mL

**Q.** And the AUC(0-t) ([2]; female, po, 0.09 g/kg, single TRQCs 0.09 g/kg, beagle No 5)?
**A.** 126 ng·h/mL

**Q.** What about the AUC(0-t) ([2]; female, po, 0.09 g/kg, single TRQCs 0.09 g/kg, beagle No 6) of the same compound?
**A.** 1080 ng·h/mL

**Q.** And the AUC(0-t) ([2]; male, iv, 0.5 mL/kg, single TRQI 0.5 mL/kg, beagle No 1)?
**A.** 1490 ng·h/mL

**Q.** What about the AUC(0-t) ([2]; male, iv, 0.5 mL/kg, single TRQI 0.5 mL/kg, beagle No 2) of the same compound?
**A.** 108 ng·h/mL

**Q.** And the AUC(0-t) ([2]; male, iv, 0.5 mL/kg, single TRQI 0.5 mL/kg, beagle No 3)?
**A.** 238 ng·h/mL

**Q.** And the AUC(0-t) ([2]; male, po, 0.09 g/kg, single TRQCs 0.09 g/kg, beagle No 1)?
**A.** 104 ng·h/mL

**Q.** And the AUC(0-t) ([2]; male, po, 0.09 g/kg, single TRQCs 0.09 g/kg, beagle No 2)?
**A.** 257 ng·h/mL

**Q.** What about the AUC(0-t) ([2]; male, po, 0.09 g/kg, single TRQCs 0.09 g/kg, beagle No 3) of the same compound?
**A.** 421 ng·h/mL

**Q.** What about the t1/2 ([3]; Hu's study) of the same compound?
**A.** 110 min

**Q.** What about the t1/2 ([3]; another study) of the same compound?
**A.** 33 min

**Q.** And the AUC(0-inf) ([4]; both sexes, iv, 0.5 mL/kg, TRQI 0.5 mL/kg for 7 days, Mean)?
**A.** 5030 ng·h/mL

**Q.** What about the AUC(0-t) ([4]; both sexes, iv, 0.5 mL/kg, TRQI 0.5 mL/kg for 7 days, Mean, read-out: AUC0–24 h) of the same compound?
**A.** 4070 ng·h/mL

**Q.** What about the Cmax at 7 days [4, 10] of the same compound?
**A.** 968 ng/mL

**Q.** And the half-life at 7 days [4, 10]?
**A.** 375 min

**Q.** And the AUC(0-inf) ([4]; both sexes, po, 0.09 g/kg, TRQC 0.09 g/kg for 7 days, Mean)?
**A.** 3710 ng·h/mL

**Q.** And the AUC(0-t) ([4]; both sexes, po, 0.09 g/kg, TRQC 0.09 g/kg for 7 days, Mean, read-out: AUC0–24 h)?
**A.** 3430 ng·h/mL

**Q.** And the Cmax at 7 days [4, 11]?
**A.** 521 ng/mL

**Q.** What about the Tmax at 7 days [4, 11] of the same compound?
**A.** 4.72 h

**Q.** And the half-life at 7 days [4, 11]?
**A.** 824 min

**Q.** What about the AUC(0-inf) ([4]; female, iv, 0.5 mL/kg, TRQI 0.5 mL/kg for 7 days, beagle No. 4) of the same compound?
**A.** 6190 ng·h/mL

**Q.** And the AUC(0-t) ([4]; female, iv, 0.5 mL/kg, TRQI 0.5 mL/kg for 7 days, beagle No. 4, read-out: AUC0–24 h)?
**A.** 669 ng·h/mL

**Q.** What about the AUC(0-inf) ([4]; female, iv, 0.5 mL/kg, TRQI 0.5 mL/kg for 7 days, beagle No. 5) of the same compound?
**A.** 399 ng·h/mL

**Q.** And the AUC(0-t) ([4]; female, iv, 0.5 mL/kg, TRQI 0.5 mL/kg for 7 days, beagle No. 5, read-out: AUC0–24 h)?
**A.** 234 ng·h/mL

**Q.** And the AUC(0-inf) ([4]; female, iv, 0.5 mL/kg, TRQI 0.5 mL/kg for 7 days, beagle No. 6)?
**A.** 138 ng·h/mL

**Q.** And the AUC(0-t) ([4]; female, iv, 0.5 mL/kg, TRQI 0.5 mL/kg for 7 days, beagle No. 6, read-out: AUC0–24 h)?
**A.** 138 ng·h/mL

**Q.** And the AUC(0-inf) ([4]; female, po, 0.09 g/kg, TRQC 0.09 g/kg for 7 days, beagle No. 4)?
**A.** 16800 ng·h/mL

**Q.** What about the AUC(0-t) ([4]; female, po, 0.09 g/kg, TRQC 0.09 g/kg for 7 days, beagle No. 4, read-out: AUC0–24 h) of the same compound?
**A.** 16700 ng·h/mL

**Q.** What about the AUC(0-inf) ([4]; female, po, 0.09 g/kg, TRQC 0.09 g/kg for 7 days, beagle No. 5) of the same compound?
**A.** 1960 ng·h/mL

**Q.** And the AUC(0-t) ([4]; female, po, 0.09 g/kg, TRQC 0.09 g/kg for 7 days, beagle No. 5, read-out: AUC0–24 h)?
**A.** 500 ng·h/mL

**Q.** What about the AUC(0-inf) ([4]; female, po, 0.09 g/kg, TRQC 0.09 g/kg for 7 days, beagle No. 6) of the same compound?
**A.** 761 ng·h/mL

**Q.** And the AUC(0-t) ([4]; female, po, 0.09 g/kg, TRQC 0.09 g/kg for 7 days, beagle No. 6, read-out: AUC0–24 h)?
**A.** 760 ng·h/mL

**Q.** What about the AUC(0-inf) ([4]; male, iv, 0.5 mL/kg, TRQI 0.5 mL/kg for 7 days, beagle No. 1) of the same compound?
**A.** 20000 ng·h/mL

**Q.** And the AUC(0-t) ([4]; male, iv, 0.5 mL/kg, TRQI 0.5 mL/kg for 7 days, beagle No. 1, read-out: AUC0–24 h)?
**A.** 20000 ng·h/mL

**Q.** What about the AUC(0-inf) ([4]; male, iv, 0.5 mL/kg, TRQI 0.5 mL/kg for 7 days, beagle No. 2) of the same compound?
**A.** 183 ng·h/mL

**Q.** What about the AUC(0-t) ([4]; male, iv, 0.5 mL/kg, TRQI 0.5 mL/kg for 7 days, beagle No. 2, read-out: AUC0–24 h) of the same compound?
**A.** 121 ng·h/mL

**Q.** And the AUC(0-inf) ([4]; male, iv, 0.5 mL/kg, TRQI 0.5 mL/kg for 7 days, beagle No. 3)?
**A.** 3250 ng·h/mL

**Q.** And the AUC(0-t) ([4]; male, iv, 0.5 mL/kg, TRQI 0.5 mL/kg for 7 days, beagle No. 3, read-out: AUC0–24 h)?
**A.** 3240 ng·h/mL

**Q.** And the AUC(0-inf) ([4]; male, po, 0.09 g/kg, TRQC 0.09 g/kg for 7 days, beagle No. 1)?
**A.** 231 ng·h/mL

**Q.** What about the AUC(0-t) ([4]; male, po, 0.09 g/kg, TRQC 0.09 g/kg for 7 days, beagle No. 1, read-out: AUC0–24 h) of the same compound?
**A.** 195 ng·h/mL

**Q.** And the AUC(0-inf) ([4]; male, po, 0.09 g/kg, TRQC 0.09 g/kg for 7 days, beagle No. 2)?
**A.** 1930 ng·h/mL

**Q.** What about the AUC(0-t) ([4]; male, po, 0.09 g/kg, TRQC 0.09 g/kg for 7 days, beagle No. 2, read-out: AUC0–24 h) of the same compound?
**A.** 1900 ng·h/mL

**Q.** What about the AUC(0-inf) ([4]; male, po, 0.09 g/kg, TRQC 0.09 g/kg for 7 days, beagle No. 3) of the same compound?
**A.** 538 ng·h/mL

**Q.** And the AUC(0-t) ([4]; male, po, 0.09 g/kg, TRQC 0.09 g/kg for 7 days, beagle No. 3, read-out: AUC0–24 h)?
**A.** 493 ng·h/mL
